Source: patent publication US8426396B2, “Treatment for achondroplasia” (Shriners Hospitals for Children, priority 2008, dated 2013)
Where a SMILES comes first, the peptide text is derived from it. The star is where a group is joined. Cbz = O=C(OCc1ccccc1)*

Test system: TDII FGFR3
Assay: Proteasome inhibition in cells expressing TDII FGFR3 (immunoblot)
Format: cell-based, mouse
Conditions: 17-AAG-induced decrease, FIG. 11
Text: The two FGFR3 bands reflect glycosylation differences.

Structure (SMILES): CC(C)C[C@@H](C=O)NC(=O)[C@H](CC(C)C)NC(=O)[C@H](CC(C)C)NC(=O)OCc1ccccc1 [MG132] (Cbz-Leu-Leu-Leu-aldehyde)
- TDII FGFR3 degradation: decreased TDII FGFR3 degradation
